One data set has as its system LoVo carcinoma cells. Description: Annexin-V-FITC/PI flow cytometry, LoVo. The data set is classed as cell-based, human. Conditions: 50 µg/mL, 48 h; for Early apoptotic cells (Annexin-V positive, PI negative): lower right quadrant; for Late apoptotic cells (Annexin-V and PI positive): upper right quadrant. As for the experimental part: In order to examine the effect of compounds 3a and 3f on the apoptosis of HCT-116 and LoVo carcinoma cells, the Annexin-V-FITC probe was used and flow cytometry analyses were performed (Figure 7).
The percentages of the early apoptotic cells (Annexin-V positive and propidium iodide, PI negative) and late apoptotic cells (both Annexin-V and PI positive) were then calculated. Annexin V-PI staining was also performed to distinguish apoptotic and necrotic cell deaths.
The distribution of early and late apoptotic cells after treatment with compounds 3a and 3f was carried out using an Annexin V-FITC Apoptosis Detection Kit (BioVisionResearch Products—USA). HCT-116 and LoVo carcinoma cells were seeded in 60 mm^2 culture dishes and treated with the vehicles DMSO, and compounds 3a and 3f (50 µg/mL) for 48 h. Cells were then harvested, washed twice with PBS and resuspended in an Annexin-V binding buffer (BioVisionResearch Products—USA). Finally, the cells were stained with Annexin V-FITC and propidium iodide (PI). The fluorescent intensity of the stained cancer cells was determined using an FITC signal detector (usually FL1) and PI staining with the phycoerythrin emission signal detector (through quadrant statistics for necrotic and apoptotic cell populations).
In general terms: A flow cytometer gives signals particle by particle.

Data set [1] in a line: Viability assay (LDH release), HUVEC. The data set is classed as cell-based, human. Conditions: human. As to the method:
The samples were diluted in Dulbecco’s Modified Eagle’s Medium, consisting of 10% fetal bovine serum (FBS), added to cells grown and cultured for 24 h in a 5% CO2-humidified incubator at 37 °C. Thereafter, the activity of lactate dehydrogenase released from damaged cells was determined in the collected supernatant aliquots using an ELISA end-point assay (Benchmark Plus, Bio-Rad, CA, USA); 0.1% Triton X-100 in the assay medium and the assay medium only were used as the positive and negative controls, respectively. Cell viability was expressed as a relative percentage of the OD values (at 550 nm) for compound-treated cells (final concentration of 200 µg /mL) and the negative control, which was shown as the mean % ± SD (n = 3). The results of the viability assays for the potential cytotoxic candidates were compared with the % of viable human umbilical vein endothelial cells (HUVEC) at the same concentration. These cells were grown in Dulbecco’s Modified Eagle’s Medium (PAN-Biotech; Barcelona, Spain) containing 10% FBS (Sigma Aldrich; St. Quentin-Fallavier, France), 2 mM Glutamine (Sigma Aldrich), 100 units/mL penicillin and […] streptomycin (Life Technologies; Paisley, UK).

Data set [2] can be described thus: DPPH radical scavenging assay. Type of data set: biochemical. The following applies: for Mean IC50 for scavenging initial DPPH radicals: mean ± SD of three replicates; for IC50: mean ± SD, converted from mg/mL, read-out: Mean IC50 for scavenging initial DPPH radicals (converted). The method, boiled down:
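Ethanolic DPPH mixed 1:1 with test compound, BHT as reference antioxidant, incubated 1 h at room temperature in darkness. Residual DPPH absorbance read at 519 nm against a no-compound control; scavenging % = (1 − Acompound/AControl) × 100, from three independent triplicate measurements.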

As a reminder, the IC50 is the midpoint of a concentration-inhibition curve.

Like-named read-outs stand apart in the source and are kept apart here.

In the case of `O=c1c2cc(Cl)ccc2[nH]c(=S)n1-c1ccc([N+](=O)[O-])cc1` [Compound 3f, 6-Chloro-3-(4-nitro-phenyl)-2-thioxo-2,3-dihydro-1H-quinazolin-4-one], in the data set on LoVo carcinoma cells, the “Early apoptotic cells (Annexin-V positive, PI negative)” value is on record as 12.97%; the “Late apoptotic cells (Annexin-V and PI positive)” value was determined as 4.66%. This molecule had a viability at 200 µg/mL in data set [1] of 99.67 ± 0.577%. Besides, in data set [2], the “Mean IC50 for scavenging initial DPPH radicals” value came out at 227 ± 10 µg/mL and the IC50 was 680 µM.

In the case of `O=c1c2cc(Cl)ccc2[nH]c(=S)n1-c1cccc(C(F)(F)F)c1` [Compound 3a, 6-Chloro-2-thioxo-3-(3-trifluoromethyl-phenyl)-2,3-dihydro-1H-quinazolin-4-one], in the data set with LoVo carcinoma cells, the “Early apoptotic cells (Annexin-V positive, PI negative)” value was 18.29%; the “Late apoptotic cells (Annexin-V and PI positive)” value was 11.01%. The viability at 200 µg/mL in data set [1] (human umbilical vein endothelial cells (HUVEC), 200 µg/mL, read-out: Mean % of viable cells ± SD, HUVEC) is 97 ± 2.65%. In data set [2], the “Mean IC50 for scavenging initial DPPH radicals” value stood at 68 ± 4 µg/mL and the IC50 was 191 µM.
